Assay results as given in ChEMBL document CHEMBL3885881, “DrugMatrix”.

Organism: Rattus norvegicus
Test: DrugMatrix - Regimen: Daily Repeat
Format: toxicity, organism-based, Sprague-Dawley
Parameters: regimen Daily Repeat, gender Male, age 6-8 weeks
Conditions: in vivo, po, route oral GAVAGE, vehicle 100 % WATER; for ABSOLUTE BASOPHIL / ABSOLUTE EOSINOPHIL / ABSOLUTE LYMPHOCYTE / ABSOLUTE MONOCYTE / ABSOLUTE SEGMENTED NEUTROPHIL / BASOPHIL / EOSINOPHIL / ERYTHROCYTE COUNT / HEMATOCRIT / LEUKOCYTE COUNT / LYMPHOCYTE / MEAN CORPUSCULAR HEMOGLOBIN / MEAN CORPUSCULAR HEMOGLOBIN CONCENTRATION / MEAN CORPUSCULAR VOLUME / MONOCYTE / NEUTROPHIL / NUCLEATED RED BLOOD CELLS / PLATELET COUNT: tissue Blood; for ALANINE AMINOTRANSFERASE / ALBUMIN / ALKALINE PHOSPHATASE / ASPARTATE AMINOTRANSFERASE / CARBON DIOXIDE / CHLORIDE / CHOLESTEROL / CREATINE PHOSPHOKINASE / CREATININE / LIPASE / POTASSIUM / TOTAL BILIRUBIN / TOTAL PROTEIN / BLOOD UREA NITROGEN: tissue Plasma
[1] = 0 mg/kg, 72 h, dose level Control, time 3 day
[2] = 0 mg/kg, 120 h, dose level Control, time 5 day
[3] = 44 mg/kg, 72 h, dose level Low, time 3 day
[4] = 44 mg/kg, 120 h, dose level Low, time 5 day

`NC(=O)c1ncn([C@@H]2O[C@H](CO)[C@@H](O)[C@H]2O)n1` [RIBAVIRIN] was tested, and the “ABSOLUTE BASOPHIL” value [1] was 0 CELLS/uL, the “ABSOLUTE EOSINOPHIL” value [1] was 40 CELLS/uL and the “ABSOLUTE LYMPHOCYTE” value [1] was 13599.5 CELLS/uL. For the same molecule, the “ABSOLUTE MONOCYTE” value [1] was 239.33 CELLS/uL, the “ABSOLUTE SEGMENTED NEUTROPHIL” value [1] was 1021.17 CELLS/uL and the BASOPHIL [1] was 0%. The EOSINOPHIL [1] was 0.33%, the “ERYTHROCYTE COUNT” value [1] was 5.71 x10E6/uL and the HEMATOCRIT [1] was 36.35%. The “LEUKOCYTE COUNT” value [1] was 14.9 x10E3/uL, the LYMPHOCYTE [1] was 91% and the “MEAN CORPUSCULAR HEMOGLOBIN” value [1] was 24.62 pg. For the same molecule, the “MEAN CORPUSCULAR HEMOGLOBIN CONCENTRATION” value [1] was 38.65 G/DL, the “MEAN CORPUSCULAR VOLUME” value [1] was 63.7 fL and the MONOCYTE [1] was 1.5%. The NEUTROPHIL [1] was 7.17%, the “NUCLEATED RED BLOOD CELLS” value [1] was 0.33 /100WBC and the “PLATELET COUNT” value [1] was 1225.5 x10E3/uL. The “ALANINE AMINOTRANSFERASE” value [1] was 48.5 u/L, the ALBUMIN [1] was 4.18 G/DL and the “ALKALINE PHOSPHATASE” value [1] was 390.83 u/L. For the same molecule, the “ASPARTATE AMINOTRANSFERASE” value [1] was 89 u/L, the “CARBON DIOXIDE” value [1] was 24.83 mmol/L and the CHLORIDE [1] was 100.83 MEQ/L. The CHOLESTEROL [1] was 72.5 mg/dL, the “CREATINE PHOSPHOKINASE” value [1] was 503 u/L and the CREATININE [1] was 0.2 mg/dL. For the same molecule, the LIPASE [1] was 9.83 u/L, the POTASSIUM [1] was 6.16 MEQ/L and the “TOTAL BILIRUBIN” value [1] was 0.2 mg/dL. The “TOTAL PROTEIN” value [1] was 5.8 G/DL, the “ABSOLUTE BASOPHIL” value [2] was 0 CELLS/uL and the “ABSOLUTE EOSINOPHIL” value [2] was 21 CELLS/uL. The “ABSOLUTE LYMPHOCYTE” value [2] was 14288.5 CELLS/uL, the “ABSOLUTE MONOCYTE” value [2] was 205.33 CELLS/uL and the “ABSOLUTE SEGMENTED NEUTROPHIL” value [2] was 968.5 CELLS/uL. The BASOPHIL [2] was 0%, the EOSINOPHIL [2] was 0.17% and the “ERYTHROCYTE COUNT” value [2] was 5.83 x10E6/uL. For the same molecule, the HEMATOCRIT [2] was 36.53%, the “LEUKOCYTE COUNT” value [2] was 15.48 x10E3/uL and the LYMPHOCYTE [2] was 92%. The “MEAN CORPUSCULAR HEMOGLOBIN” value [2] was 24.72 pg, the “MEAN CORPUSCULAR HEMOGLOBIN CONCENTRATION” value [2] was 39.43 G/DL and the “MEAN CORPUSCULAR VOLUME” value [2] was 62.68 fL. For the same molecule, the MONOCYTE [2] was 1.33%, the NEUTROPHIL [2] was 6.5% and the “NUCLEATED RED BLOOD CELLS” value [2] was 0.17 /100WBC. For the same molecule, the “PLATELET COUNT” value [2] was 1280.5 x10E3/uL, the “ALANINE AMINOTRANSFERASE” value [2] was 50 u/L and the ALBUMIN [2] was 4.28 G/DL. The “ALKALINE PHOSPHATASE” value [2] was 380.17 u/L, the “ASPARTATE AMINOTRANSFERASE” value [2] was 82.67 u/L and the “BLOOD UREA NITROGEN” value [2] was 15.33 mg/dL. The “CARBON DIOXIDE” value [2] was 27.17 mmol/L, the CHLORIDE [2] was 100.33 MEQ/L and the CHOLESTEROL [2] was 60.67 mg/dL. The “CREATINE PHOSPHOKINASE” value [2] was 441.5 u/L, the CREATININE [2] was 0.16 mg/dL and the LIPASE [2] was 9.17 u/L. For the same molecule, the POTASSIUM [2] was 6.86 MEQ/L, the “TOTAL BILIRUBIN” value [2] was 0.2 mg/dL and the “TOTAL PROTEIN” value [2] was 6.12 G/DL. The “ABSOLUTE BASOPHIL” value [3] was 0 CELLS/uL, the “ABSOLUTE EOSINOPHIL” value [3] was 33.67 CELLS/uL and the “ABSOLUTE LYMPHOCYTE” value [3] was 13109.33 CELLS/uL. For the same molecule, the “ABSOLUTE MONOCYTE” value [3] was 126 CELLS/uL, the “ABSOLUTE SEGMENTED NEUTROPHIL” value [3] was 1164.33 CELLS/uL and the BASOPHIL [3] was 0%. For the same molecule, the EOSINOPHIL [3] was 0.33%, the “ERYTHROCYTE COUNT” value [3] was 5.44 x10E6/uL and the HEMATOCRIT [3] was 33.17%. The “LEUKOCYTE COUNT” value [3] was 14.43 x10E3/uL, the LYMPHOCYTE [3] was 91.33% and the “MEAN CORPUSCULAR HEMOGLOBIN” value [3] was 23.47 pg. For the same molecule, the “MEAN CORPUSCULAR HEMOGLOBIN CONCENTRATION” value [3] was 38.53 G/DL, the “MEAN CORPUSCULAR VOLUME” value [3] was 60.97 fL and the MONOCYTE [3] was 0.67%. The NEUTROPHIL [3] was 7.67%, the “NUCLEATED RED BLOOD CELLS” value [3] was 0 /100WBC and the “PLATELET COUNT” value [3] was 1365.67 x10E3/uL. The “ALANINE AMINOTRANSFERASE” value [3] was 53 u/L, the ALBUMIN [3] was 4.3 G/DL and the “ALKALINE PHOSPHATASE” value [3] was 371.67 u/L. The “ASPARTATE AMINOTRANSFERASE” value [3] was 93.67 u/L, the “BLOOD UREA NITROGEN” value [3] was 13.67 mg/dL and the “CARBON DIOXIDE” value [3] was 27.67 mmol/L. The CHLORIDE [3] was 101 MEQ/L, the CHOLESTEROL [3] was 71.33 mg/dL and the “CREATINE PHOSPHOKINASE” value [3] was 286.67 u/L. For the same molecule, the CREATININE [3] was 0.17 mg/dL, the LIPASE [3] was 9 u/L and the POTASSIUM [3] was 6.94 MEQ/L. The “TOTAL BILIRUBIN” value [3] was 0.27 mg/dL, the “TOTAL PROTEIN” value [3] was 5.97 G/DL and the “ABSOLUTE BASOPHIL” value [4] was 0 CELLS/uL. The “ABSOLUTE EOSINOPHIL” value [4] was 0 CELLS/uL, the “ABSOLUTE LYMPHOCYTE” value [4] was 17320.33 CELLS/uL and the “ABSOLUTE MONOCYTE” value [4] was 316 CELLS/uL. For the same molecule, the “ABSOLUTE SEGMENTED NEUTROPHIL” value [4] was 1397 CELLS/uL, the BASOPHIL [4] was 0% and the EOSINOPHIL [4] was 0%. The “ERYTHROCYTE COUNT” value [4] was 5.46 x10E6/uL, the HEMATOCRIT [4] was 34.3% and the “LEUKOCYTE COUNT” value [4] was 19.03 x10E3/uL. The LYMPHOCYTE [4] was 91%, the “MEAN CORPUSCULAR HEMOGLOBIN” value [4] was 24.7 pg and the “MEAN CORPUSCULAR HEMOGLOBIN CONCENTRATION” value [4] was 39.23 G/DL. The “MEAN CORPUSCULAR VOLUME” value [4] was 62.87 fL, the MONOCYTE [4] was 1.67% and the NEUTROPHIL [4] was 7.33%.
